The values that follow come from publication PMC8213057, “Targeting ALK2: An Open Science Approach to Developing Therapeutics for the Treatment of Diffuse Intrinsic Pontine Glioma” (Journal of Medicinal Chemistry, 2020).

One assay deals with T1, ULK3 (Homo sapiens, UniProt Q6PHR2).
T1 sequence (Q6PHR2 1-472): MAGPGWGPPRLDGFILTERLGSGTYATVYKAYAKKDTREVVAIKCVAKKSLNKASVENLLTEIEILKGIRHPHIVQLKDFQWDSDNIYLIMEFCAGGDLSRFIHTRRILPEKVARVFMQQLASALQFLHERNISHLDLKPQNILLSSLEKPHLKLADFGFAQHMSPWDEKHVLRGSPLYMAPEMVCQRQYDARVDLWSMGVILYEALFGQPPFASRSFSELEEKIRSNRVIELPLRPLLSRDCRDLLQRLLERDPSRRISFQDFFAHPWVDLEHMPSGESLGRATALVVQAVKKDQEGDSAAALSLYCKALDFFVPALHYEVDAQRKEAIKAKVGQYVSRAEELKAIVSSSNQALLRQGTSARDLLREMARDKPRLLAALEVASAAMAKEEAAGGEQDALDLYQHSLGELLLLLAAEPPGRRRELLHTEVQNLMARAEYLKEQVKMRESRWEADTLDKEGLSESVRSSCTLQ
The assay can be described thus: biochemical. Conditions: read-out: % enzyme activity, 1 μM; Run 1, Run 2.

A further assay addresses T2, RIPK4 (Homo sapiens, UniProt P57078).
T2 sequence (P57078 1-832): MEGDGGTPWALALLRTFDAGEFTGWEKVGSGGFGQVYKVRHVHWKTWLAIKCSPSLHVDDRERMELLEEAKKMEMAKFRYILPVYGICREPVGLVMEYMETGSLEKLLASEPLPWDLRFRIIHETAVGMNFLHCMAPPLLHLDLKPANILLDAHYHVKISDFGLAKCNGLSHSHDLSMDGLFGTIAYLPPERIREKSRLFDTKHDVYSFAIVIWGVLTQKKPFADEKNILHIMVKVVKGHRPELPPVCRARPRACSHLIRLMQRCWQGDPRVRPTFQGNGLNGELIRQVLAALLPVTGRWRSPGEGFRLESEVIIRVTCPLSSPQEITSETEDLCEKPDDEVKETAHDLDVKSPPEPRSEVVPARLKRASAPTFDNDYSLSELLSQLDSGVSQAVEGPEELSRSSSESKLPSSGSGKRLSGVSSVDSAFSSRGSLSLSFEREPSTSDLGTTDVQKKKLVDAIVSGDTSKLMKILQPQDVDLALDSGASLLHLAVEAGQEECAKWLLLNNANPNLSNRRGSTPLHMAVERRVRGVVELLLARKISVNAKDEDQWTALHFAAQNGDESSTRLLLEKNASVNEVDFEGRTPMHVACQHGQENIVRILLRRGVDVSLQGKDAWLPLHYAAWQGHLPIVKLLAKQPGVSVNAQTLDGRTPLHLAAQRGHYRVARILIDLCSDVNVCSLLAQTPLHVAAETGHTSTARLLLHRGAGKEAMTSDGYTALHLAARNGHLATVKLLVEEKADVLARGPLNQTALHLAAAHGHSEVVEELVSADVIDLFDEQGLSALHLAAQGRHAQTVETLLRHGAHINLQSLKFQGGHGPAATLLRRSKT
The assay can be described thus: biochemical. Conditions: read-out: % enzyme activity, 1 μM; Run 1, Run 2.

In a further assay the target is T3, PKCnu/PRKD3 (Homo sapiens, UniProt O94806).
T3 sequence (O94806 1-890): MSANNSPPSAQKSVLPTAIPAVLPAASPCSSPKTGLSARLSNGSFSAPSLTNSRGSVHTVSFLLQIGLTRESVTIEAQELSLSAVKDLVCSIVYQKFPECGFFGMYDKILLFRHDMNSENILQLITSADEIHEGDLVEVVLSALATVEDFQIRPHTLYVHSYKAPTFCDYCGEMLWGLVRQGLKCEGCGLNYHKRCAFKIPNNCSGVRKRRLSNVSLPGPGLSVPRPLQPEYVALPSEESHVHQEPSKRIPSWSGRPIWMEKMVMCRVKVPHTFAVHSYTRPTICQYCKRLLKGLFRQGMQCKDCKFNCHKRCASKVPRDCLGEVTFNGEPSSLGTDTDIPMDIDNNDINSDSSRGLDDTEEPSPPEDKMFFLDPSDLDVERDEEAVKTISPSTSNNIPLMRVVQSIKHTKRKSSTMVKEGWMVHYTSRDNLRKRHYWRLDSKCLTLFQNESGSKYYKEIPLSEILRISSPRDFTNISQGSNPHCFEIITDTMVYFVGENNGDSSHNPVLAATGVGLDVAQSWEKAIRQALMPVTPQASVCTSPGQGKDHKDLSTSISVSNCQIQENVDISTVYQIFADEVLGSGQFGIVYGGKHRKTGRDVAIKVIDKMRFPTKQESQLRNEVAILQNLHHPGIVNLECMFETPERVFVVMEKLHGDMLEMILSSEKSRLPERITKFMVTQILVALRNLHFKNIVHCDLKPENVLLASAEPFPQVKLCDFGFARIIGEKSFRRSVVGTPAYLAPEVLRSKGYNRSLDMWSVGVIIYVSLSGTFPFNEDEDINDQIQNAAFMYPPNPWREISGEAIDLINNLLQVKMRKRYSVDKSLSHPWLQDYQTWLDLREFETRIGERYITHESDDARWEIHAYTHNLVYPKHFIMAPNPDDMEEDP
To be noted: 1 μM; Run 1, Run 2.

A further assay addresses MLCK/MYLK (Homo sapiens, UniProt Q15746). Put plainly: biochemical. To be noted: read-out: % enzyme activity, 1 μM; Run 1, Run 2.
The next assay concerns the target T4, MST2/STK3 (Homo sapiens, UniProt Q13188).
T4 sequence (Q13188 1-491): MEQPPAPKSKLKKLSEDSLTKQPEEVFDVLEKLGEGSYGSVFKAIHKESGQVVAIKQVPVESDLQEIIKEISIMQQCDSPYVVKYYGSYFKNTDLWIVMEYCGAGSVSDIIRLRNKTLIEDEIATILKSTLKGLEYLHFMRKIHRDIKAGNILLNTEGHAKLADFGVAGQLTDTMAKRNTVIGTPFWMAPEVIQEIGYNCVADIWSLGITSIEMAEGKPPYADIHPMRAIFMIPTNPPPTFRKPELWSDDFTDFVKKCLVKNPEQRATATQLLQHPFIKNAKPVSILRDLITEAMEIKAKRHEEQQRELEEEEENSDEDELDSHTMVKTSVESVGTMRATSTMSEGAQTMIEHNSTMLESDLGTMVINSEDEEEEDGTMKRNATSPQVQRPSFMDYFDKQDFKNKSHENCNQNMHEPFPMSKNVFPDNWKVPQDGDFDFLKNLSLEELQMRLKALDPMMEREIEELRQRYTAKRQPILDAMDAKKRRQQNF
Conditions: 1 μM; Run 1, Run 2.

The target of the next assay is FYN (Homo sapiens, UniProt P06241). The assay can be described thus: biochemical. To be noted: read-out: % enzyme activity, 1 μM; Run 1, Run 2.
FYN, sequence (P06241 whole entry): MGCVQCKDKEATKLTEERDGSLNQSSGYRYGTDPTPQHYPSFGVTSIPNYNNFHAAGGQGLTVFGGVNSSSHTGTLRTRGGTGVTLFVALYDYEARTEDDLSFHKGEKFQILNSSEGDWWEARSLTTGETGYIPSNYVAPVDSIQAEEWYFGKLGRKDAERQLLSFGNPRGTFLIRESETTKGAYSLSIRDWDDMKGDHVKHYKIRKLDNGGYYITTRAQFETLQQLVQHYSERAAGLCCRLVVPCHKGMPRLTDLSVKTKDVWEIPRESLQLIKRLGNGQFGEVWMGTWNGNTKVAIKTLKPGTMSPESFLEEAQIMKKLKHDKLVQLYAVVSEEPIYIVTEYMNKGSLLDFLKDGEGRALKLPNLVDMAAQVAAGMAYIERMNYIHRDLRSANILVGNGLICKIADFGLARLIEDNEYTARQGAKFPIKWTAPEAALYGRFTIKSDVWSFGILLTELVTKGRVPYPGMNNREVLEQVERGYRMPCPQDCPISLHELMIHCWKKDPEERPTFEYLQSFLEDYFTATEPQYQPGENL
The target of a further assay is DYRK1B (Homo sapiens, UniProt Q9Y463). The assay can be described thus: biochemical. Conditions: read-out: % enzyme activity, 1 μM; Run 1, Run 2.
DYRK1B, sequence (Q9Y463 whole entry): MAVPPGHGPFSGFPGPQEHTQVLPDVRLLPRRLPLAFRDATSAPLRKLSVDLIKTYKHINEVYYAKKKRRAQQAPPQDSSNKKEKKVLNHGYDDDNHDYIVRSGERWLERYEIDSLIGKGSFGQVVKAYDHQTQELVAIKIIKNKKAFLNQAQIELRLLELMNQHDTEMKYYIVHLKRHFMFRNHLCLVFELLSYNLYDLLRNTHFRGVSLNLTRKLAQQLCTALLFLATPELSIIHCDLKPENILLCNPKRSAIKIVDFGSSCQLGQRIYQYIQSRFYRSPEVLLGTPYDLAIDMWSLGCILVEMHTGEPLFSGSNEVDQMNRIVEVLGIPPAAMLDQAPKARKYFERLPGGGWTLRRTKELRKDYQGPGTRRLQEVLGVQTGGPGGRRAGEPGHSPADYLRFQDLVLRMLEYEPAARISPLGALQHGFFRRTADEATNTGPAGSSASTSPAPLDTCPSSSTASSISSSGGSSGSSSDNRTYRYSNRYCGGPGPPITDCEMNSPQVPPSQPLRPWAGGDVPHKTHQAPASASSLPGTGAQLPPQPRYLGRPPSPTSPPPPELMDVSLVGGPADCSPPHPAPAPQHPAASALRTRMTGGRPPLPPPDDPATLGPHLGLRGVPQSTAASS

Several values for one entry are separate records, joined by “and”; a condition that tells them apart may be missing. Identical values can stand only once.

MLCK/MYLK, sequence (Q15746 whole entry): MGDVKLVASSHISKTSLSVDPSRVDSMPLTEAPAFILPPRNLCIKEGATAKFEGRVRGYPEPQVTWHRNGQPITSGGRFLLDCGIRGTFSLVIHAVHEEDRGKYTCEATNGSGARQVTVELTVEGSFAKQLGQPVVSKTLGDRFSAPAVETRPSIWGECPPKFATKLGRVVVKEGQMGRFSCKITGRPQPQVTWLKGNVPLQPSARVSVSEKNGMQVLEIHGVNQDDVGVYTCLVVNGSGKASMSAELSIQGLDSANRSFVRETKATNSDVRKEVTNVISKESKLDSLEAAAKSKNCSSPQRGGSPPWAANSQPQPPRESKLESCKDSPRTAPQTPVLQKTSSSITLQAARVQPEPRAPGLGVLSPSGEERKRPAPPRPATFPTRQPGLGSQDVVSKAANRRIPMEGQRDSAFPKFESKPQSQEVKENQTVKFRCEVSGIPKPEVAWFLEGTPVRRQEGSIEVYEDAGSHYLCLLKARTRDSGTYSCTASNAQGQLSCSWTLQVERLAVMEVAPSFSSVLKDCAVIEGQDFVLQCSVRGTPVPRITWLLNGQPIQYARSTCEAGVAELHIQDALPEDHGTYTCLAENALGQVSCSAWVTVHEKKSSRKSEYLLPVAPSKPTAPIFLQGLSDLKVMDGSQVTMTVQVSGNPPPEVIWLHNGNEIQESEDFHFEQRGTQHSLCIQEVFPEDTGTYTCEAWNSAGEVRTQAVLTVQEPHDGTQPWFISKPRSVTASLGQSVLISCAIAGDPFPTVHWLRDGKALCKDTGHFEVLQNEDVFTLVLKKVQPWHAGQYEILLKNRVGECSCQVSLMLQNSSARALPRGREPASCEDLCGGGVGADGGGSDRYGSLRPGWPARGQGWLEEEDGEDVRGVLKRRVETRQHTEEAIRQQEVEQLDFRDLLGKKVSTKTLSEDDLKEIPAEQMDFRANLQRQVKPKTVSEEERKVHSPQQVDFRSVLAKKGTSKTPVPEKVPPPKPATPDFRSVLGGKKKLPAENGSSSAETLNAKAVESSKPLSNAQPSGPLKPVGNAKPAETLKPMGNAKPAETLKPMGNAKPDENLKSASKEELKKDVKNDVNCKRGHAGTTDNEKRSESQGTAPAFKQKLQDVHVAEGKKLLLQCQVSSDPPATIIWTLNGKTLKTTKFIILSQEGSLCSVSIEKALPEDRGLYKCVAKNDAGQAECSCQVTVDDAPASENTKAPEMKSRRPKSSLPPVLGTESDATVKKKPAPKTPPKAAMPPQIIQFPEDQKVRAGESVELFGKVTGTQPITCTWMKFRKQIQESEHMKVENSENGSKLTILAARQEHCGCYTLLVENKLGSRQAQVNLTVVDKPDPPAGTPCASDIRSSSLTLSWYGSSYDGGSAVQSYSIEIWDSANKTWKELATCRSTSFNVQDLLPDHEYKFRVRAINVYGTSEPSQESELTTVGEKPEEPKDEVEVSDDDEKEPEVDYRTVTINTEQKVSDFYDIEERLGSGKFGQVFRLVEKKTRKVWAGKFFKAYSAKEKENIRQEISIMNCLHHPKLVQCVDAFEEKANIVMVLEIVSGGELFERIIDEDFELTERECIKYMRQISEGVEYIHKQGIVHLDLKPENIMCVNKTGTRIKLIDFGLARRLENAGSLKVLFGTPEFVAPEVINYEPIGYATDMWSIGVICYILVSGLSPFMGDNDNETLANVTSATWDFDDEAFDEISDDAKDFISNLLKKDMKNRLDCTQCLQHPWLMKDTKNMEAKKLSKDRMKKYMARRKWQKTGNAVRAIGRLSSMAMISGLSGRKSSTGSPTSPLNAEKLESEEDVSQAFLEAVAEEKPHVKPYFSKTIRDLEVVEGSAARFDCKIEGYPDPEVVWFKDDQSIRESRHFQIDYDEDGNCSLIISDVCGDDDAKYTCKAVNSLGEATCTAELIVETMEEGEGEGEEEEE

`COc1cc(-c2cncc(-c3ccc(N4C[C@@H](C)N(C)[C@@H](C)C4)cc3)c2C)cc(F)c1C(N)=O` [Compound 26c, 2-Fluoro-6-methoxy-4-(4-methyl-5-(4-((3R,5S)-3,4,5-trimethylpiperazin-1-yl)phenyl)pyridin-3-yl)benzamide]: the remaining activity at 1 µM is 98.8% on ULK3; 86.1% at RIPK4; 103% at MLCK/MYLK; 97% on FYN; 59.2% on DYRK1B. Further, the “% enzyme activity” value on PKCnu/PRKD3 is listed as 89.59%; at MST2/STK3, 100.46%. In the assay with MINK/MINK1, the % enzyme activity at 1 μM is 30.2% and 29.6%.

As for `COc1cc(-c2cncc(-c3ccc(N4CCN(C)CC4)cc3)c2C)cc(F)c1C(N)=O` [Compound 26a, 2-Fluoro-6-methoxy-4-(4-methyl-5-(4-(4-methylpiperazin-1-yl)phenyl)pyridin-3-yl)benzamide], the remaining activity at 1 µM at ULK3 was determined as 91.5%; at RIPK4, 75.5%; at MLCK/MYLK, 106%; at FYN, 99.9%; on DYRK1B it was 40.6%. For the same compound, the figures for the “% enzyme activity” value at PKCnu/PRKD3 and on MST2/STK3 were 83.26% and 93.91%, respectively. For the same compound, the % enzyme activity at 1 μM in the assay with MINK/MINK1 is 24.1% and 22.6%.
